Measured values reported in PubChem BioAssay AID248 (DTP/NCI, 2004).
“And” between values parts separate entries of the source, which are not always exact repeats. Equal values may be shown once. Inconclusive results and toxic doses are left out. Cut-off read from the data, not from the text of the source: active = T/C of 150% or more; inactive = T/C below 125%. Square brackets hold non-standard residues; d marks the D form. Peptide text beside a SMILES is read from it. * marks the point of attachment. ξ: configuration not given here. Cbz = O=C(OCc1ccccc1)*; ξNle = CCCCC(N)C(=O)O

Tested on: L1210 leukemia ip in BDF1 mice, survival T/C
Experiment: NCI In Vivo Anticancer Drug Screen. Data for tumor model L1210 Leukemia (intraperitoneal) in B6D2F1 (BDF1) mice
Details: endpoint: mean survival time, higher = longer survival
In short: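 Each compound was tested against a transplantable tumor grown in mice. The endpoint was survival, with treated animals benchmarked against vehicle controls as a simple ratio.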

[1] = dose: 100.0 mg/kg/injection, schedule: Q01DX001 (ip), vehicle: saline
[2] = dose: 100.0 mg/kg/injection, schedule: Q01DX009 (ip), vehicle: saline
[3] = dose: 200.0 mg/kg/injection, schedule: Q01DX001 (ip), vehicle: saline
[4] = dose: 200.0 mg/kg/injection, schedule: Q01DX009 (ip), vehicle: saline
[5] = dose: 400.0 mg/kg/injection, schedule: Q01DX001 (ip), vehicle: saline
[6] = dose: 400.0 mg/kg/injection, schedule: Q01DX009 (ip), vehicle: saline
[7] = dose: 100.0 mg/kg/injection, schedule: Q04DX003 (ip), vehicle: Klucel (hydroxypropylcellulose) (HPC)
[8] = dose: 200.0 mg/kg/injection, schedule: Q04DX003 (ip), vehicle: Klucel (hydroxypropylcellulose) (HPC)
[9] = dose: 400.0 mg/kg/injection, schedule: Q04DX003 (ip), vehicle: Klucel (hydroxypropylcellulose) (HPC)
[10] = dose: 100.0 mg/kg/injection, schedule: Q01DX009 (ip), vehicle: Klucel (hydroxypropylcellulose) (HPC)
[11] = dose: 200.0 mg/kg/injection, schedule: Q01DX009 (ip), vehicle: Klucel (hydroxypropylcellulose) (HPC)
[12] = dose: 100.0 mg/kg/injection, schedule: Q04DX003 (ip), vehicle: saline with Tween-80
[13] = dose: 400.0 mg/kg/injection, schedule: Q01DX009 (ip), vehicle: Klucel (hydroxypropylcellulose) (HPC)

Measured: T/C

C/C(=C/c1ccccc1)S(=O)(=O)c1ccccc1
inactive: [1] 105 % of control | [2] 91 % of control | [3] 100 % of control | [4] 94 % of control | [5] 105 % of control | [6] 93 % of control

C(#CP(c1ccccc1)c1ccccc1)c1ccccc1
inactive: [7] 93 % of control | [8] 97 % of control | [9] 95 % of control

CCOC(=O)/C(C(C)=O)=C(/O)c1ccc(OC(F)(F)C(F)Cl)cc1OC(F)(F)C(F)Cl.CCOC(=O)/C(C(C)=O)=C(/O)c1ccc(OC(F)(F)C(F)Cl)cc1OC(F)(F)C(F)Cl.[Cu] (stereo unspecified)
inactive: [10] 88 % of control | [7] 100 % of control | [11] 94 % of control | [8] 101 % of control | [9] 101 % of control

CCCP(=S)(C(C)C)C(C)C
inactive: [12] 103 % of control

CC(O)CNC(=S)c1ccccc1 (stereo unspecified)
inactive: dose: 100.0 mg/kg/injection, schedule: Q04DX002 (ip), vehicle: saline with Tween-80 101 % of control | dose: 200.0 mg/kg/injection, schedule: Q04DX002 (ip), vehicle: saline with Tween-80 101 % of control

O=C(CCCCCCC(=O)C[N+]12CCC(CC1)C(O)C2)C[N+]12CCC(CC1)C(O)C2 (stereo unspecified)
inactive: dose: 0.15 mg/kg/injection, schedule: Q04DX003 (ip), vehicle: saline 102 % of control | dose: 0.3 mg/kg/injection, schedule: Q04DX003 (ip), vehicle: saline 100 % of control | dose: 0.6 mg/kg/injection, schedule: Q04DX003 (ip), vehicle: saline 102 % of control

CC(O)C(Cc1ccccc1)NC(=O)C(=O)NC(Cc1ccccc1)C(C)O (stereo unspecified)
inactive: [7] 95 % of control | [8] 90 % of control | [9] 92 % of control

CCOC(=O)C1CCC(C(=O)OCC)N1C (stereo unspecified)
inactive: [1] 97 % of control | [2] 96 % of control | [3] 88 % of control | [4] 98 % of control | [5] 95 % of control | [6] 100 % of control

Nc1nc(Cc2cccc3ccccc23)nc(Cc2cccc3ccccc23)n1
inactive: [7] 87 % of control | [8] 92 % of control

COC(=O)NS(=O)(=O)C=C(c1ccccc1)c1ccccc1
inactive: [10] 106 % of control | [7] 96 % of control | [11] 106 % of control | [8] 108 % of control | [9] 86 % of control

CC(=O)NCCCOc1ccc([N+](=O)[O-])cc1Cl
inactive: dose: 100.0 mg/kg/injection, schedule: Q01DX001 (ip), vehicle: Klucel (hydroxypropylcellulose) (HPC) 100 % of control | [10] 102 % of control | [7] 101 % of control | dose: 200.0 mg/kg/injection, schedule: Q01DX001 (ip), vehicle: Klucel (hydroxypropylcellulose) (HPC) 101 % of control | [11] 110 % of control and 112 % of control | [8] 113 % of control | [9] 103 % of control

c1ccc2c(C3=NCCN3)ccc(C3=NCCN3)c2c1
inactive: dose: 15.0 mg/kg/injection, schedule: Q01DX Z (ip), vehicle: saline 100 % of control | dose: 30.0 mg/kg/injection, schedule: Q01DX Z (ip), vehicle: saline 101 % of control

CCS(=O)(=O)c1ccc(C(=O)N=[N+]=[N-])cc1
inactive: dose: 100.0 mg/kg/injection, schedule: Q01DX001 (ip), vehicle: carboxymethylcellulose (CMC) 92 % of control | dose: 200.0 mg/kg/injection, schedule: Q01DX001 (ip), vehicle: carboxymethylcellulose (CMC) 97 % of control | dose: 400.0 mg/kg/injection, schedule: Q01DX001 (ip), vehicle: carboxymethylcellulose (CMC) 105 % of control

CCOc1ccc(N=C=S)cc1
inactive: [1] 93 % of control | [3] 98 % of control | [5] 102 % of control

CC(/C=N/NC(N)=S)=N\N=C(N)N
inactive: dose: 15.0 mg/kg/injection, schedule: Q01DX Z (ip), vehicle: carboxymethylcellulose (CMC) 98 % of control | dose: 30.0 mg/kg/injection, schedule: Q01DX Z (ip), vehicle: carboxymethylcellulose (CMC) 101 % of control | dose: 60.0 mg/kg/injection, schedule: Q01DX Z (ip), vehicle: carboxymethylcellulose (CMC) 98 % of control | dose: 120.0 mg/kg/injection, schedule: Q01DX Z (ip), vehicle: carboxymethylcellulose (CMC) 98 % of control

CNC(=O)OCC(Cl)(Cl)Cl
inactive: [10] 97 % of control | [7] 96 % of control | [11] 98 % of control | [8] 100 % of control | [13] 95 % of control | [9] 100 % of control

COC1=C(c2ccccc2)P(=O)(Cc2ccccc2)C2CCCC12 (stereo unspecified)
inactive: [7] 109 % of control | [8] 96 % of control | [9] 100 % of control

CCCCC(NC(=O)CNC(=O)CNC(=O)OCc1ccccc1)C(=O)O (stereo not drawn) (Cbz-Gly-Gly-[ξNle]-OH)
inactive: [7] 108 % of control | [8] 104 % of control | [9] 96 % of control

CCCCCCCCCCCCc1cc2ccccc2c2ccccc12
inactive: [1] 98 % of control | [3] 95 % of control | [5] 89 % of control

CC(C(=O)O)N(CC(=O)O)CC(=O)O.[Co+2].[NH-]CC(=O)O (stereo unspecified)
inactive: dose: 6.25 mg/kg/injection, schedule: Q01DX009 (ip), vehicle: water 106 % of control and 89 % of control | dose: 12.5 mg/kg/injection, schedule: Q01DX009 (ip), vehicle: water 93 % of control and 106 % of control and 124 % of control | dose: 25.0 mg/kg/injection, schedule: Q01DX009 (ip), vehicle: water 102 % of control and 109 % of control | dose: 50.0 mg/kg/injection, schedule: Q01DX009 (ip), vehicle: water 109 % of control and 114 % of control | dose: 100.0 mg/kg/injection, schedule: Q04DX003 (ip), vehicle: water 107 % of control | dose: 200.0 mg/kg/injection, schedule: Q04DX003 (ip), vehicle: water 105 % of control

Cc1ccc2[nH]c(C)cc(=O)c2c1
inactive: dose: 2.5 mg/kg/injection, schedule: Q01DX009 (ip), vehicle: saline 109 % of control | dose: 5.0 mg/kg/injection, schedule: Q01DX009 (ip), vehicle: saline 95 % of control | dose: 10.0 mg/kg/injection, schedule: Q01DX001 (ip), vehicle: saline 104 % of control | dose: 10.0 mg/kg/injection, schedule: Q01DX009 (ip), vehicle: saline 106 % of control | dose: 20.0 mg/kg/injection, schedule: Q01DX001 (ip), vehicle: saline 101 % of control | dose: 40.0 mg/kg/injection, schedule: Q01DX001 (ip), vehicle: saline 98 % of control

CCCCCCCC(=O)N(C)OC
inactive: [10] 97 % of control | [7] 89 % of control | [8] 94 % of control | [13] 100 % of control | [9] 92 % of control

COc1ccc(OCC2CO2)cc1 (stereo unspecified)
inactive: [10] 103 % of control | [7] 100 % of control | [11] 103 % of control | [8] 96 % of control | [13] 102 % of control | [9] 102 % of control

S=P(N1CCOCC1)(N1CCOCC1)N1CCOCC1
inactive: dose: 100.0 mg/kg/injection, schedule: Q04DX002 (ip), vehicle: Klucel (hydroxypropylcellulose) (HPC) 103 % of control | dose: 200.0 mg/kg/injection, schedule: Q04DX002 (ip), vehicle: Klucel (hydroxypropylcellulose) (HPC) 89 % of control | dose: 400.0 mg/kg/injection, schedule: Q04DX002 (ip), vehicle: Klucel (hydroxypropylcellulose) (HPC) 113 % of control

C=C1CC(C)(c2ccc(CCCC(=O)OCC)cc2)OC1=O (stereo unspecified)
inactive: dose: 50.0 mg/kg/injection, schedule: Q01DX009 (ip), vehicle: saline with Tween-80 102 % of control | dose: 100.0 mg/kg/injection, schedule: Q01DX009 (ip), vehicle: saline with Tween-80 102 % of control | [12] 103 % of control | dose: 200.0 mg/kg/injection, schedule: Q01DX009 (ip), vehicle: saline with Tween-80 88 % of control | dose: 200.0 mg/kg/injection, schedule: Q04DX003 (ip), vehicle: saline with Tween-80 97 % of control
